Results from patent US8759049B2, “Method for the production of a fermentation product from a sugar hydrolysate” (Iogen Energy Corporation, priority 2010, dated 2014).

Columns and labels:
Assay type in all cases: cell-based
[1] = tested on: contaminated yeast cream (Saccharomyces cerevisiae yeast strain with bacterial contaminants); assay: Yeast fermentation performance in lignocellulosic hydrolysate after treatment of contaminated yeast cream
Description: Yeast fermentation performance was evaluated by inoculating the contaminated control yeast, acid-treated yeast and combination acid-chlorine dioxide treated yeast creams (treated as set forth in Example 1.1) into 400 mL of lignocellulosic hydrolysate. The lignocellulosic hydrolysate was produced as set forth in Example 1.1. Prior to inoculation, the media was sparged with pure CO2 for two minutes to ensure anaerobicity. Cells were allowed to ferment at 30° C., 150 rpm until sugar exhaustion. CO2 production was monitored for the course of the fermentation and samples were taken for dry cell weight and HPLC analysis.
The samples were analyzed for cell mass using dry cell weight (Rice et al. (1980) Am. Soc. Brew. Chem. J. 38:142-45, which is incorporated herein by reference). For the fermentability analysis, samples were taken from the bioreactors using a 10 mL syringe. From each sample, cells in 2 mL culture samples were pelleted by centrifugation and the supernatant decanted and filtered through a 0.2 μm syringe filter. Each supernatant sample was diluted with 5 mM sulfuric acid. All dilutions were analyzed for glucose, xylose, xylitol, glycerol, and ethanol content on the Agilent 1100 Series Refractive Index Detector HPLC, while acetic and lactic acid were analyzed concurrently using an Agilent 1200 Series Variable Wavelength Detector HPLC. The column used for separation was the Varian Metacarb 87H Organic Acid column, maintained at 50° C. with a 5 mM sulfuric acid mobile phase at a flow rate of 0.6 mL/min. The unit was equipped with the 1100 Series Auto-sampler and Pumping System and controlled with the Chemstation software.

[2] = tested on: bacteria that proliferated in the industrial fermentation (contaminated yeast cream); assay: Bacterial plate counts of contaminated yeast cream after acid and/or chlorine dioxide treatment (lab scale, Examples 1.1 and 1.2); conditions: for reduction of bacterial population: yeast cream first lowered to pH 2.0 with sulfuric acid, 5 minutes
Description: A yeast cream (also referred to herein as a “yeast slurry”) separated from the fermentation broth and contaminated with bacteria that proliferated in the industrial fermentation was treated at 20° C. with acid alone, chlorine dioxide alone or a combination of the two. In the acid treated condition, the pH was lowered from 5.0 to 2.0 with sulfuric acid. In the chlorine dioxide treated condition, a concentrated stock of chlorine dioxide in water (10,000 ppm) was prepared by passing a mixture of chlorine and nitrogen gas through sodium chlorite columns. The resulting ClO2 gas was sparged into 4 L of cold de-ionized water until the desired concentration was reached. This chlorine dioxide solution was used to treat the yeast cream.
In the combination treatment, the yeast cream was first lowered to pH 2.0 with sulfuric acid for 5 minutes and subsequently treated with the indicated bolus dose of chlorine dioxide for 5 minutes. In cases where the pH was lowered, the yeast cream was titrated back to 5.0 with sodium hydroxide after 10 minutes and prior to plating for bacterial enumeration. The duration of acid exposure was limited to 10 minutes to match the duration of exposure for the other treatments.
Bacterial colonies were enumerated via standard plate count methods. In order to selectively plate bacterial colonies and inhibit yeast growth, tryptic soy agar plates (15 g/L pancreatic digest of casein, 5 g/L enzymatic digest of soybean meal, 5 g/L sodium chloride and 15 g/L agar) with 100 mg/L cycloheximide were used. Samples were serially diluted into sterile saline (0.9% NaCl w/v) prior to plating.
Contaminated yeast cream obtained from the fermentation of Example 1.1 was titrated to pH 2.0 with sulfuric acid, treated with various concentrations of chlorine dioxide (0, 50, 100, 150 and 200 ppm) and plated to determine the bacterial reduction at pH 2.0 as outlined above, with the exception that the temperature of the treatment was 30° C. rather than 20° C. Bacterial populations were enumerated as previously described (Example 1.1). Bacterial populations were also enumerated on a control sample that was not subjected to chlorine dioxide or pH titration.

[3] = tested on: bacteria contaminating yeast cream; assay: Bacterial plate counts of yeast cream in industrial scale operation before and after treatment
Description: A volume of 100,000 L whole fermentation broth was separated into a beer fraction and a yeast cream after completion of the fermentation. The yeast cream was concentrated to approximately 170 g dry cell weight/L. Prior to recycle into the next fermentation batch, the yeast cream contaminated with bacteria was treated at 20° C. with acid alone (batch 1) or treated with acid in combination with chlorine dioxide (batch 2). […] Chlorine dioxide was generated in concentrated form at a nominal concentration of 2700 ppm using a system commercially available from Pureline, Palatine, Ill. In the combination treatment, the acidity of the yeast cream was first lowered to pH 2.0 (as per Example 1.1) and subsequently treated at a bolus dose of 200 ppm chlorine dioxide with a residence time of approximately 45 seconds. After treatment, the yeast cream was fed back into the fermentation.

[4] = tested on: Saccharomyces cerevisiae yeast strain; assay: Yeast cell counts (viability) of yeast cream after acid and/or chlorine dioxide treatment
Description: A sample of the yeast cream from Example 1.1 was plated for yeast growth after the treatments outlined therein. […] Selective yeast growth was enabled by serially diluting the cream in sterile saline (0.9% NaCl w/v) and plating on YM plates (10 g/L glucose, 5 g/L peptone, 3 g/L yeast extract, 3 g/L malt extract, 20 g/L agar) containing 34 mg/L chloramphenicol to inhibit bacterial growth.

[O][Cl+][O-] [chlorine dioxide]
xylose consumption rate in lignocellulosic hydrolysate ([1]; combination acid-chlorine dioxide treatment (pH 2, 200 and 500 ppm) versus untreated control, change greater than with acid alone): relative decrease | ethanol yield ([1]; combination acid-chlorine dioxide treatment versus untreated control, change greater than with acid alone): increase | reduction of contamination in yeast cream ([2]; 100 ppm chlorine dioxide, pH 2, 30° C.): 10^2 CFU/mL | decrease of bacterial counts ([2]; 200 ppm chlorine dioxide, pH 2, 30° C.): greater than 10^5 CFU/mL | reduction of bacterial population ([2]; 200 ppm chlorine dioxide, 20° C.): 10^2 CFU/mL | reduction of bacterial counts ([2]; 500 ppm chlorine dioxide, room temperature, as restated in Example 1.2 (see FIG. 2)): 100 fold | reduction of bacterial population ([2]; 500 ppm chlorine dioxide, 20° C.): 10^3 CFU/mL | effect of increasing chlorine dioxide dose on bacterial populations ([2]; pH 5.0, 0, 200 and 500 ppm, 20° C., no acid): negligible effect | decrease of bacterial contamination counts ([3]; pH 2.0 with sulfuric acid then 200 ppm chlorine dioxide, about 45 seconds, 20° C., industrial scale (batch 2)): 10^4 CFU/mL | effect of increasing chlorine dioxide dose on fermentation yeast populations ([4]; 0, 200, 500 ppm, regardless of the pH of the treatment (pH 5 or pH 2)): negligible effect | viability of the fermentation yeast culture ([4]; combination of acid (pH 2) and chlorine dioxide 200 and 500 ppm, 20° C.): not affected

O=S(=O)(O)O [sulfuric acid]
ethanol yield ([1]; acid treatment alone (pH 2) versus untreated control): increase | xylose consumption rate in lignocellulosic hydrolysate ([1]; acid treatment alone (pH 2) versus untreated control, equivalent cell concentrations, 30° C.): relative decrease | reduction of bacterial population by acid alone (pH control) ([2]; pH 2.0, no chlorine dioxide, 30° C.): did not reduce | reduction of bacterial population by lowering the pH alone ([2]; pH 2.0 with sulfuric acid, 0 ppm chlorine dioxide, 20° C., 10 minutes): does not significantly reduce | reduction of bacterial contamination counts ([3]; sulfuric acid alone to pH 2.0, 20° C., industrial scale (batch 1)): 10^2 CFU/mL | viability of the fermentation yeast culture ([4]; acid treatment alone, pH 2, 20° C.): not affected
